Experimental findings from patent publication US20230203558A1, “[…] FOR USE IN A METHOD OF DIAGNOSIS OF VIRAL INFECTION, KIT AND SYSTEM” (Original G B.V., priority 2020, published 2023) are described below.

Values joined by “and” are separate entries in the source; they are usually repeats but may differ in a detail not shown here. Equal entries are not always repeated. Where no end group is shown, it is not given here.

In one experiment the test system is elastase. Kind of experiment: Relative activity (NIR fluorescence) of quenched peptides with control protease elastase. It is filed as biochemical.
Experiment [1] addresses T1, SARS-CoV-2 main protease (Severe acute respiratory syndrome coronavirus 2, UniProt P0DTD1). To be noted: 0.1 mg/mL peptide; for Cleavage of peptide (site) by SARS-CoV-2 main protease: protease 10 μM, RP-HPLC-MS. As to the method: Mass spectra were acquired on a Agilent Technologies 6530 Accurate Mass Q-TOF LC/MS with an Agilent Infinity 1260/1290 HPLC. RP-HPLC was carried out using a RP-aqueous 030 analytical column, 5 uM, 150×2.0 mm [Phenomenex]. The mobile phase was A) 10 mM ammonium formate/2% v/v MeCN, pH 6.2 and B) 10 mM ammonium formate/90% v/v MeCN, pH 6.2.
The gradient used was 0.2 mL-min, 25 minutes.
0.1 mg/mL solution of each peptide in Table 3 was incubated with SARS-CoV-2 main protease (at 10 μM).

For experiment [2], the target named is T1, SARS-CoV-2 main protease.
A further experiment deals with SARS-CoV-2. In words: Clinical samples PCR-characterized for SARS-CoV-2, relative activity on DeNIRO. Conditions: peptide 20 μM; for Relative activity class, SARS-CoV-2 positive (swab): room temperature, 0-60 minutes.
The test system of a further experiment is Rhinovirus. In words: Clinical sample, Rhinovirus positive, relative activity on DeNIRO. To be noted: peptide 20 μM.
The subject of the next experiment is saliva proteases. In words: Cross reactivity to saliva proteases. In kind it is biochemical. Details: key: −: Not observed; +: observed.
The test system of experiment [3] is Mycobacterium tuberculosis.

For the substance Cy7-Ahx-AAFAA-K(QC1)-CONH2 [Peptide 3], the “Relative activity, Elastase 0.2 μM” value stood at 2.2 with elastase (peptide concentration 5 μM) and 87.1 in the experiment on elastase (peptide concentration 20 μM). Also, the Cleavage fragment entry at SARS-CoV-2 main protease [1] (SARS-CoV-2 main protease 10 μM, 4 hours) is recorded as “NONE”. In addition, on SARS-CoV-2 main protease [1], the “Cleavage of peptide (site) by SARS-CoV-2 main protease” value (“Cleavage of peptide (site)” below) was “No cleavage was observed”. Besides, the “Ratio for SARS-CoV-2 main protease to elastase” value (from here on “Ratio”) on SARS-CoV-2 main protease [2] is 0.15. In addition, the “Relative activity, SARS-CoV-2 main protease 0.2 μM” value at SARS-CoV-2 main protease [2] (pH 7.3) is 0.4 and 0.6.
“Cy7-Ahx-[PEG1]-HQS[PEG1]K(QC1)-CONH2 [Peptide 2]”: the “Relative activity, Elastase 0.2 μM” value in the experiment with elastase (peptide concentration 5 μM) is given as 0.1. In addition, the “Relative activity, Elastase 0.2 μM” value with elastase (peptide concentration 20 μM) is 0.9. At SARS-CoV-2 main protease [1], the “Cleavage of peptide (site)” value is listed as “between Q-S”. In the experiment on SARS-CoV-2, the “Relative activity class, SARS-CoV-2 negative (saliva)” value is recorded as “− (a relative activity of <10% indicates absence of SARS-CoV-2 (−))”; the “Relative activity class, SARS-CoV-2 negative (swab)” value was “− (a relative activity of <10% indicates absence of SARS-CoV-2 (−))”; the “Relative activity class, SARS-CoV-2 positive (saliva)” value is “+ (A relative activity of >10% indicates the presence of SARS-CoV-2 (+))”; the “Relative activity class, SARS-CoV-2 positive (swab)” value is “+ (A relative activity of >10% indicates the presence of SARS-CoV-2 (+))”. In addition, the “Relative activity class, Rhinovirus positive” value in the experiment with Rhinovirus was “− (a relative activity of <10% indicates absence of SARS-CoV-2 (−))”. In addition, in the experiment on saliva proteases, the “Cross reactivity to saliva proteases” value is on record as “−”. The “Ratio” value on SARS-CoV-2 main protease [2] is given as 54. The “Relative activity class, Mycobacterium tuberculosis positive” value in experiment [3] was “− (key: A relative activity of >10% indicates the presence of SARS-CoV-2 (+); a relative activity of <10% indicates absence of SARS-CoV-2 (−))”.
In the case of “Cy7-Ahx-[PEG1]VLQS[PEG1]K(QC1)-CONH2 [Peptide 1]”, the “Relative activity, Elastase 0.2 μM” value in the experiment with elastase (peptide concentration 5 μM) was 7. In the experiment on elastase (peptide concentration 20 μM), the “Relative activity, Elastase 0.2 μM” value is 8.5. Also, the “Cleavage of peptide (site)” value at SARS-CoV-2 main protease [1] was “between Q-S”. Moreover, in the experiment on SARS-CoV-2, the “Relative activity class, SARS-CoV-2 negative (saliva)” value was “− (a relative activity of <10% indicates absence of SARS-CoV-2 (−))”; the “Relative activity class, SARS-CoV-2 negative (swab)” value is recorded as “− (a relative activity of <10% indicates absence of SARS-CoV-2 (−))”; the “Relative activity class, SARS-CoV-2 positive (saliva)” value is reported as “+ (A relative activity of >10% indicates the presence of SARS-CoV-2 (+))”; the “Relative activity class, SARS-CoV-2 positive (swab)” value is listed as “+ (A relative activity of >10% indicates the presence of SARS-CoV-2 (+))”. In the experiment with Rhinovirus, the “Relative activity class, Rhinovirus positive” value is recorded as “− (a relative activity of <10% indicates absence of SARS-CoV-2 (−))”. Further, the “Cross reactivity to saliva proteases” value in the experiment on saliva proteases is given as “−”. The “Ratio” value at SARS-CoV-2 main protease [2] was 3.5. Moreover, the “Relative activity class, Mycobacterium tuberculosis positive” value in experiment [3] is “− (key: A relative activity of >10% indicates the presence of SARS-CoV-2 (+); a relative activity of <10% indicates absence of SARS-CoV-2 (−))”.
Regarding “Ex 1.1: fluorescently quenched peptide (TVRLQSGF) with fluorescent agent, non-fluorescent agent and cleavage site specific for a Coronavirus (also: fluorophore and quencher, sites not given here)”, in the experiment with SARS-CoV-19 virus, the “increase in RFU” value was “An increase in RFU is detected”.
